Assay results reported in patent publication US12077503B2, “Substituted cyclic amides and their use as herbicides” (FMC CORPORATION, priority 2015, dated 2024).

Tests used:
Type in all cases: in vivo
[1] = tested on: velvetleaf (Abutilon theophrasti); assay: Test G Post-Emergence Protocol; details: Abutilon theophrasti, post-emergence, 312 h
In short: (§1)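 Foliar application was made 8 days after sowing, using an aqueous spray of the active in acetone/water (50:50) with 0.5% Tween 20, at doses of 15.625, 62.5 or 250 g/ha. Injury was assessed 13 days later, where 100 meant the plant was fully damaged.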

[2] = tested on: redroot pigweed (Amaranthus retroflexus); assay: Test G Post-Emergence Protocol; details: Amaranthus retroflexus, post-emergence, 312 h
In short: as §1

[3] = tested on: barnyardgrass (Echinochloa crus-galli); assay: Test G Post-Emergence Protocol; details: Echinochloa crus-galli, post-emergence, 312 h
In short: as §1

[4] = tested on: giant foxtail (Setaria faberi); assay: Test G Post-Emergence Protocol; details: Setaria faberi, post-emergence, 312 h
In short: as §1

[5] = tested on: ivy-leaved morning glory (Ipomoea hederacea); assay: Test G Post-Emergence Protocol; details: Ipomoea, post-emergence, 312 h
In short: as §1

corn (Zea mays) [6] = assay: Test G Post-Emergence Protocol; details: Zea mays, post-emergence, 312 h
In short: as §1

[7] = tested on: velvetleaf (Abutilon theophrasti); assay: Test G Pre-Emergence Protocol; details: Abutilon theophrasti, pre-emergence, 312 h, evaluated after 13 days
In short: (§2)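 One day after sowing, pots are treated with a spray of test compound formulated in acetone/water 50:50 plus 0.5% Tween 20, giving 15.625, 62.5 or 250 g/ha. Evaluation on a 0–100 damage scale follows 13 days of glasshouse growth.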

[8] = tested on: redroot pigweed (Amaranthus retroflexus); assay: Test G Pre-Emergence Protocol; details: Amaranthus retroflexus, pre-emergence, 312 h, evaluated after 13 days
In short: as §2

[9] = tested on: barnyardgrass (Echinochloa crus-galli); assay: Test G Pre-Emergence Protocol; details: Echinochloa crus-galli, pre-emergence, 312 h, evaluated after 13 days
In short: as §2

[10] = tested on: giant foxtail (Setaria faberi); assay: Test G Pre-Emergence Protocol; details: Setaria faberi, pre-emergence, 312 h, evaluated after 13 days
In short: as §2

[11] = tested on: ivy-leaved morning glory (Ipomoea hederacea); assay: Test G Pre-Emergence Protocol; details: Ipomoea, pre-emergence, 312 h, evaluated after 13 days
In short: as §2

corn (Zea mays) [12] = assay: Test G Pre-Emergence Protocol; details: Zea mays, pre-emergence, 312 h, evaluated after 13 days
In short: as §2

CN1C[C@@H](c2ccc(C(F)(F)F)cc2)[C@H](C(=O)Nc2ccc(C#N)cc2Cl)C1=O (racemic) [Compound 1620]
0%: pest or weed control at 15.625 g/ha ([1]; 15.625 g ai/ha, evaluated after 13 days (100=total damage to plant; 0=no damage to plant), read-out: Velvetleaf damage rating) | pest or weed control at 62.5 g/ha ([1]; 62.5 g ai/ha, evaluated after 13 days, read-out: Velvetleaf damage rating (100=total damage to plant; 0=no damage to plant)) | pest or weed control at 250 g/ha ([1]; 250 g ai/ha, evaluated after 13 days, read-out: damage to plant, Velvetleaf (100=total damage to plant; 0=no damage to plant)) | pest or weed control at 15.625 g/ha ([2]; 15.625 g ai/ha, evaluated after 13 days (100=total damage to plant; 0=no damage to plant), read-out: Pigweed, Redroot damage rating) | pest or weed control at 62.5 g/ha ([2]; 62.5 g ai/ha, evaluated after 13 days, read-out: Pigweed, Redroot damage rating (100=total damage to plant; 0=no damage to plant)) | pest or weed control at 250 g/ha ([2]; 250 g ai/ha, evaluated after 13 days, read-out: damage to plant, Pigweed, Redroot (100=total damage to plant; 0=no damage to plant)) | pest or weed control at 15.625 g/ha ([3]; 15.625 g ai/ha, evaluated after 13 days (100=total damage to plant; 0=no damage to plant), read-out: Barnyardgrass damage rating) | pest or weed control at 62.5 g/ha ([3]; 62.5 g ai/ha, evaluated after 13 days, read-out: Barnyardgrass damage rating (100=total damage to plant; 0=no damage to plant)) | pest or weed control at 250 g/ha ([3]; 250 g ai/ha, evaluated after 13 days, read-out: damage to plant, Barnyardgrass (100=total damage to plant; 0=no damage to plant)) | pest or weed control at 15.625 g/ha ([4]; 15.625 g ai/ha, evaluated after 13 days (100=total damage to plant; 0=no damage to plant), read-out: Foxtail, Giant damage rating) | pest or weed control at 62.5 g/ha ([4]; 62.5 g ai/ha, evaluated after 13 days, read-out: Foxtail, Giant damage rating (100=total damage to plant; 0=no damage to plant)) | pest or weed control at 250 g/ha ([4]; 250 g ai/ha, evaluated after 13 days, read-out: damage to plant, Foxtail, Giant (100=total damage to plant; 0=no damage to plant)) | pest or weed control at 15.625 g/ha ([5]; 15.625 g ai/ha, evaluated after 13 days (100=total damage to plant; 0=no damage to plant), read-out: Morningglory, Ivy-leaved damage rating) | pest or weed control at 62.5 g/ha ([5]; 62.5 g ai/ha, evaluated after 13 days, read-out: Morningglory, Ivy-leaved damage rating (100=total damage to plant; 0=no damage to plant)) | pest or weed control at 250 g/ha ([5]; 250 g ai/ha, evaluated after 13 days, read-out: damage to plant, Morningglory, Ivy-leaved (100=total damage to plant; 0=no damage to plant)) | plant injury at 15.625 g/ha (corn (Zea mays) [6]; 15.625 g ai/ha, evaluated after 13 days (100=total damage to plant; 0=no damage to plant), read-out: Corn damage rating) | plant injury at 62.5 g/ha (corn (Zea mays) [6]; 62.5 g ai/ha, evaluated after 13 days, read-out: Corn damage rating (100=total damage to plant; 0=no damage to plant)) | plant injury at 250 g/ha (corn (Zea mays) [6]; 250 g ai/ha, evaluated after 13 days, read-out: damage to plant, Corn (100=total damage to plant; 0=no damage to plant)) | pest or weed control at 15.625 g/ha ([7]; 15.625 g ai/ha, read-out: Velvetleaf damage rating (100=total damage to plant; 0=no damage to plant)) | pest or weed control at 62.5 g/ha ([7]; 62.5 g ai/ha, 100=total damage to plant, 0=no damage to plant, read-out: plant damage rating, Velvetleaf) | pest or weed control at 250 g/ha ([7]; 250 g ai/ha, read-out: Velvetleaf damage rating (100=total damage to plant; 0=no damage to plant)) | pest or weed control at 15.625 g/ha ([8]; 15.625 g ai/ha, read-out: Pigweed, Redroot damage rating (100=total damage to plant; 0=no damage to plant)) | pest or weed control at 62.5 g/ha ([8]; 62.5 g ai/ha, 100=total damage to plant, 0=no damage to plant, read-out: plant damage rating, Pigweed, Redroot) | pest or weed control at 250 g/ha ([8]; 250 g ai/ha, read-out: Pigweed, Redroot damage rating (100=total damage to plant; 0=no damage to plant)) | pest or weed control at 15.625 g/ha ([9]; 15.625 g ai/ha, read-out: Barnyard grass damage rating (100=total damage to plant; 0=no damage to plant)) | pest or weed control at 62.5 g/ha ([9]; 62.5 g ai/ha, 100=total damage to plant, 0=no damage to plant, read-out: plant damage rating, Barnyardgrass) | pest or weed control at 250 g/ha ([9]; 250 g ai/ha, read-out: Barnyardgrass damage rating (100=total damage to plant; 0=no damage to plant)) | pest or weed control at 15.625 g/ha ([10]; 15.625 g ai/ha, read-out: Foxtail, Giant damage rating (100=total damage to plant; 0=no damage to plant)) | pest or weed control at 62.5 g/ha ([10]; 62.5 g ai/ha, 100=total damage to plant, 0=no damage to plant, read-out: plant damage rating, Foxtail, Giant) | pest or weed control at 250 g/ha ([10]; 250 g ai/ha, read-out: Foxtail, Giant damage rating (100=total damage to plant; 0=no damage to plant)) | pest or weed control at 15.625 g/ha ([11]; 15.625 g ai/ha, read-out: Morning-glory, Ivy-leaved damage rating (100=total damage to plant; 0=no damage to plant)) | pest or weed control at 62.5 g/ha ([11]; 62.5 g ai/ha, 100=total damage to plant, 0=no damage to plant, read-out: plant damage rating, Morningglory, Ivy-leaved) | pest or weed control at 250 g/ha ([11]; 250 g ai/ha, read-out: Morningglory, Ivy-leaved damage rating (100=total damage to plant; 0=no damage to plant)) | plant injury at 15.625 g/ha (corn (Zea mays) [12]; 15.625 g ai/ha, read-out: Corn damage rating (100=total damage to plant; 0=no damage to plant)) | plant injury at 62.5 g/ha (corn (Zea mays) [12]; 62.5 g ai/ha, 100=total damage to plant, 0=no damage to plant, read-out: plant damage rating, Corn) | plant injury at 250 g/ha (corn (Zea mays) [12]; 250 g ai/ha, read-out: Corn damage rating (100=total damage to plant; 0=no damage to plant))
